Literature values as cited in article PMC9329312, “Decoding kinase-adverse event associations for small molecule kinase inhibitors” (Nature Communications, 2022).

Settings: ref FAERS

## CCOc1cc2ncc(C#N)c(Nc3ccc(OCc4ccccn4)c(Cl)c3)c2cc1NC(=O)/C=C/CN(C)C [neratinib]
  Drug resistance, % of Cases: 0.15%
  Drug titration, % of Cases: 2.1%
  Dry eye, % of Cases: 0.3%
  Dry mouth, % of Cases: 2.7%
  Dry skin, % of Cases: 2.0%
  Dry throat, % of Cases: 0.075%
  Duodenal ulcer, % of Cases: 0.15%
  Dysarthria, % of Cases: 0.075%
  Dysgeusia, % of Cases: 0.45%
  Dyspepsia, % of Cases: 4.4%
  Dysphagia, % of Cases: 0.5%
  Dysphemia, % of Cases: 0.075%
  Dysphonia, % of Cases: 0.15%
  Dyspnoea exertional, % of Cases: 0.075%
  Dyspnoea, % of Cases: 1.7%
  Dysstasia, % of Cases: 0.075%
  Dysuria, % of Cases: 0.75%
  Ear infection, % of Cases: 0.15%
  Ear pain, % of Cases: 0.075%
  Early satiety, % of Cases: 0.225%
  Eating disorder, % of Cases: 0.15%
  Ecchymosis, % of Cases: 0.075%
  Eczema, % of Cases: 0.075%
  Ejection fraction decreased, % of Cases: 0.15%
  Electrocardiogram QT prolonged, % of Cases: 0.075%
  Electrolyte imbalance, % of Cases: 0.225%
  Emergency care, % of Cases: 0.7%
  Energy increased, % of Cases: 0.075%
  Enteritis, % of Cases: 0.075%
  Eosinophil count increased, % of Cases: 0.075%
  Epinephrine abnormal, % of Cases: 0.075%
  Epistaxis, % of Cases: 1.2%
  Eructation, % of Cases: 0.375%
  Erythema, % of Cases: 0.5%
  Escherichia sepsis, % of Cases: 0.075%
  Escherichia urinary tract infection, % of Cases: 0.075%
  Exfoliative rash, % of Cases: 0.075%
  Eye discharge, % of Cases: 0.225%
  Eye infection, % of Cases: 0.075%
  Eye irritation, % of Cases: 0.075%
  Eye pain, % of Cases: 0.075%
  Eye pruritus, % of Cases: 0.15%
  Eyelid margin crusting, % of Cases: 0.075%
  Facial pain, % of Cases: 0.075%
  Facial paralysis, % of Cases: 0.075%
  Faecaloma, % of Cases: 0.075%
  Faeces discoloured, % of Cases: 0.075%
  Faeces hard, % of Cases: 0.075%
  Faeces pale, % of Cases: 0.225%
  Faeces soft, % of Cases: 0.45%
  Failure to thrive, % of Cases: 0.075%
  Fall, % of Cases: 0.75%
  Fatigue, % of Cases: 25.2%
  Febrile neutropenia, % of Cases: 0.075%
  Feeding disorder, % of Cases: 0.375%
  Feeling abnormal, % of Cases: 1.5%
  Feeling jittery, % of Cases: 0.15%
  Fibromyalgia, % of Cases: 0.075%
  Flank pain, % of Cases: 0.075%
  Flatulence, % of Cases: 1.7%
  Fluid retention, % of Cases: 0.225%
  Flushing, % of Cases: 0.075%
  Food aversion, % of Cases: 0.075%
  Food craving, % of Cases: 0.075%
  Food poisoning, % of Cases: 0.075%
  Fracture, % of Cases: 0.075%
  Frustration tolerance decreased, % of Cases: 0.075%
  Full blood count abnormal, % of Cases: 0.225%
  Fungal infection, % of Cases: 0.075%
  Furuncle, % of Cases: 0.075%
  Gait disturbance, % of Cases: 0.5%
  Gait inability, % of Cases: 0.075%
  Gastric cancer stage IV, % of Cases: 0.075%
  Gastric dilatation, % of Cases: 0.075%
  Gastric disorder, % of Cases: 0.3%
  Gastric neoplasm, % of Cases: 0.075%
  Gastric ulcer haemorrhage, % of Cases: 0.075%
  Gastritis, % of Cases: 0.3%
  Gastroenteritis norovirus, % of Cases: 0.075%
  Gastroenteritis viral, % of Cases: 0.375%
  Gastroenteritis, % of Cases: 0.075%
  Gastrointestinal disorder, % of Cases: 0.225%
  Gastrointestinal haemorrhage, % of Cases: 0.075%
  Gastrointestinal infection, % of Cases: 0.075%
  Gastrointestinal perforation, % of Cases: 0.075%
  Gastrointestinal sounds abnormal, % of Cases: 0.5%
  Gastrooesophageal reflux disease, % of Cases: 2.7%
  Gastrostomy, % of Cases: 0.075%
  Gingival bleeding, % of Cases: 0.075%
  Gingivitis, % of Cases: 0.075%
  Glomerular filtration rate decreased, % of Cases: 0.225%
  Glossodynia, % of Cases: 0.075%
  Glycosylated haemoglobin increased, % of Cases: 0.075%
  Gout, % of Cases: 0.075%
  Groin pain, % of Cases: 0.075%
  Haematemesis, % of Cases: 0.3%
  Haematochezia, % of Cases: 0.6%
  Haematocrit decreased, % of Cases: 0.075%
  Haemoglobin abnormal, % of Cases: 0.075%
  Haemoglobin decreased, % of Cases: 0.45%
  Haemorrhage, % of Cases: 0.375%
  Haemorrhoidal haemorrhage, % of Cases: 0.075%
  Haemorrhoids, % of Cases: 0.15%
  Hair growth abnormal, % of Cases: 0.15%
  Hair growth rate abnormal, % of Cases: 0.075%
  Hair texture abnormal, % of Cases: 0.075%
  Hallucination, % of Cases: 0.075%
  Head and neck cancer, % of Cases: 0.075%
  Head discomfort, % of Cases: 0.075%
  Headache, % of Cases: 5.4%
  Heart rate decreased, % of Cases: 0.075%
  Heart rate increased, % of Cases: 0.5%
  Helicobacter infection, % of Cases: 0.075%
  Hepatic cyst, % of Cases: 0.075%
  Hepatic enzyme abnormal, % of Cases: 0.075%
  Hepatic enzyme increased, % of Cases: 1.5%
  Hepatic failure, % of Cases: 0.15%
  Hepatic function abnormal, % of Cases: 0.075%
  Hepatic steatosis, % of Cases: 0.075%
  Hepatitis, % of Cases: 0.3%
  Hepatomegaly, % of Cases: 0.075%
  Hepatotoxicity, % of Cases: 0.075%
  Hernia, % of Cases: 0.075%
  Herpes zoster, % of Cases: 0.15%
  Hiccups, % of Cases: 0.15%
  Hip arthroplasty, % of Cases: 0.075%
  Hordeolum, % of Cases: 0.15%
  Hospice care, % of Cases: 0.7%
  Hospitalisation, % of Cases: 5.3%
  Hot flush, % of Cases: 0.6%
  Human epidermal growth factor receptor negative, % of Cases: 0.075%
  Hydrocephalus, % of Cases: 0.075%
  Hyperbilirubinaemia, % of Cases: 0.075%
  Hyperchlorhydria, % of Cases: 0.15%
  Hyperglycaemia, % of Cases: 0.225%
  Hyperhidrosis, % of Cases: 0.075%
  Hypersensitivity, % of Cases: 0.5%
  Hypersomnia, % of Cases: 0.075%
  Hypertension, % of Cases: 0.15%
  Hypoaesthesia oral, % of Cases: 0.15%
  Hypoaesthesia, % of Cases: 1.0%
  Hypogeusia, % of Cases: 0.075%
  Hypokalaemia, % of Cases: 0.45%
  Hypomagnesaemia, % of Cases: 0.075%
  Hyponatraemia, % of Cases: 0.075%
  Hypophagia, % of Cases: 0.15%
  Hypophosphataemia, % of Cases: 0.075%
  Hypotension, % of Cases: 0.6%
  Hypovolaemia, % of Cases: 0.075%
  Hypoxia, % of Cases: 0.15%
  Hysterectomy, % of Cases: 0.15%
  Illness, % of Cases: 1.7%
  Impaired driving ability, % of Cases: 0.075%
  Impaired healing, % of Cases: 0.15%
  Impaired quality of life, % of Cases: 0.375%
  Implantable defibrillator insertion, % of Cases: 0.075%
  Inappropriate schedule of product administration, % of Cases: 0.45%
  Incision site abscess, % of Cases: 0.075%
  Incorrect dosage administered, % of Cases: 0.075%
  Incorrect dose administered, % of Cases: 1.7%
  Increased appetite, % of Cases: 0.075%
  Infection, % of Cases: 0.6%
  Influenza like illness, % of Cases: 0.3%
  Influenza, % of Cases: 0.7%
  Infrequent bowel movements, % of Cases: 0.075%
  Insomnia, % of Cases: 1.2%
  Intensive care, % of Cases: 0.075%
  Intentional dose omission, % of Cases: 0.225%
  Intentional product use issue, % of Cases: 0.15%
  Intentional underdose, % of Cases: 0.15%
  Intervertebral disc protrusion, % of Cases: 0.075%
  Intestinal haemorrhage, % of Cases: 0.075%
  Intestinal obstruction, % of Cases: 0.075%
